Experimental data from patent publication US9526680B2, “Method for searching for malodor control agent, malodor control agent, and malodor control method” (Kao Corporation, priority 2010, dated 2016).

Experiments:
OR51E1 = target: T1, OR51E1 (Homo sapiens, UniProt Q8TCB6); test: Luciferase reporter gene assay, OR51E1 expressed in HEK293 cells; format: cell-based; details: for Inhibition ratio of OR51E1 response: response to hexanoic acid, test substance added together with hexanoic acid, HEK293
T1 construct: expressed in transfected cells; host or cells: HEK293
T1 sequence (Q8TCB6 1-318): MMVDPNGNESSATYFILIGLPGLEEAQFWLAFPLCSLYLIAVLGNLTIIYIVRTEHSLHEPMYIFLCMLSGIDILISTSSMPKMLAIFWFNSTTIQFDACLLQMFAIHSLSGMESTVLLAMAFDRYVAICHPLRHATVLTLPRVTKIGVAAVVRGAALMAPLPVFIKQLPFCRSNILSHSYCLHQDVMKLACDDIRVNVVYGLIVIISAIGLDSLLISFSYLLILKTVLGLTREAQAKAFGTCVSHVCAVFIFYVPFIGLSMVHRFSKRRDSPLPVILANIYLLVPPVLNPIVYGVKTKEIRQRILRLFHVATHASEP
Description: (§1) Cloning of human olfactory receptors was performed based on the sequence information registered in GenBank, through PCR with human genomic DNA female (G1521: Promega) as a template. Each of the genes amplified through PCR was inserted into a pENTR vector (Invitrogen) according to an instruction manual. Then, the gene-inserted vector was digested with NotI and AscI, and the obtained fragments were inserted into NotI and AscI sites located downstream of the Flag-Rho tag sequence in the pME18S vector.
(§2) Each of the 350 types of human olfactory receptors was expressed in HEK293 cells. A reaction solution having a composition shown in Table 2 was prepared on a clean bench, and left to stand for 15 minutes. The solution was dispensed to each well of a 96-well plate (BD). Subsequently, […] cells (100 μL, 3×10^5 cells/cm^2) were seeded in each well and cultured for 24 hours in an incubator at 37° C. and under 5% CO2 conditions.
(§3) The olfactory receptor expressed in HEK293 cell was conjugated with cell-intrinsic Gas to activate adenylate cyclase, and thereby the level of intracellular cAMP was increased. For the measurement of the response to odor in this study, the luciferase reporter gene assay was used, in which an increase in the amount of intracellular cAMP was monitored by using the emission value originating from firefly luciferase gene (fluc2P-CRE-hygro) as an indicator. Furthermore, a gene product obtained by fusing renilla luciferase gene in the downstream of CMV promoter (hRluc-CMV) was simultaneously introduced, and this was used as an internal standard for correcting an error in the transgenesis efficiency or the number of cells. The medium was removed from the culture prepared in the above-described section 3) by using a Pipetman, and 75 μl of a solution containing an odor substance (1 mM hexanoic acid or 300 μM nonanoic acid) prepared in CD293 medium (Invitrogen) was added thereto. The cells were cultured for 4 hours in a CO2 incubator, and the luciferase gene was sufficiently expressed in the cells. For the measurement of luciferase activity, the measurement was carried out by using a Dual-Glo™ luciferase assay system (Promega) according to the operation manual of the product. A value calculated by dividing the emission value, derived from a firefly luciferase induced by the stimulation with an odor substance, by the emission value in cells that were not-stimulated with an odor substance, was designated as a fold increase, and used as an index of response intensity.
(§4) OR2W1, OR10A6, OR51E1, OR51I2, and OR51L1 were respectively expressed in HEK293 cells by the same method as that used in Example 1, and a luciferase assay was carried out. In the luciferase assay, hexanoic acid was used as the odorous substance, and test substances were added together with hexanoic acid. The response of the olfactory receptors to hexanoic acid was measured, and a decrease in the receptor response to the addition of test substances was evaluated.
(§5) The inhibition ratios of the receptor response to test substances were calculated as follows. The emission value (Y) obtained from the cells in which the same receptors were introduced but no odor stimulation was conducted, was subtracted from the emission value derived from firefly luciferase (X) induced by odor stimulation with hexanoic acid alone. Similarly, the emission value (Y) obtained from the cells in which no odor stimulation was conducted, was subtracted from the emission value (Z) caused by stimulation with a mixture of hexanoic acid and a test substance. By the following calculation formula, the inhibitory activity of the test substance to receptor response was calculated based on the increment of the emission value (X−Y) caused by stimulation of hexanoic acid alone. Multiple independent experiments were performed in duplicate, and the average of each experiment was obtained. Inhibition ratio (%)={1−(Z−Y)/(X−Y)}×100 […]

OR51L1 = target: T2, OR51L1 (Homo sapiens, UniProt Q8NGJ5); test: Luciferase reporter gene assay, OR51L1 expressed in HEK293 cells; format: cell-based; details: for Inhibition ratio of OR51L1 response: response to hexanoic acid, test substance added together with hexanoic acid, HEK293
T2 construct: expressed in transfected cells; host or cells: HEK293
T2 sequence (Q8NGJ5 1-315): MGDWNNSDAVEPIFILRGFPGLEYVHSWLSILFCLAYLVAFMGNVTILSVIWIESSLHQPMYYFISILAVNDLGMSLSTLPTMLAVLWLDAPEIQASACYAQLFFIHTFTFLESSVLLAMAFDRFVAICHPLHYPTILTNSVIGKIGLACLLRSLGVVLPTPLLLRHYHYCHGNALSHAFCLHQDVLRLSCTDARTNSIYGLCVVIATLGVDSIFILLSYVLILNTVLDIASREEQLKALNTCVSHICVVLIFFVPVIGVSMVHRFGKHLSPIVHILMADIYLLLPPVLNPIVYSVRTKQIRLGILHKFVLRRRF
Description: as §1, §2, §3, §4, §5

[1] = Sensory evaluation test of hexanoic acid odor inhibition; format: in vivo; details: for Intensity of odor: hexanoic acid odor, malodor alone rated as 5, 0 to 10 points, test substance diluted 100 times with propylene glycol, three panelists; for Inhibition of hexanoic acid odor (in words): sensory test, test substance diluted 100 times with propylene glycol (FIG. 5, Table 4)
Description: Cotton balls were introduced into a glass bottle (Hakuyo Glass Co., Ltd. No. 11, capacity 110 ml), and hexanoic acid diluted 100 times with propylene glycol, nonanoic acid diluted 10 times with propylene glycol, or isovaleric acid diluted 1000 times with propylene glycol, as a malodor, and a test substance were added dropwise in an amount of […] to the cotton balls. The glass bottle was left to stand overnight at room temperature, and the odor molecules were sufficiently volatilized in the glass bottle. A sensory evaluation test was carried out by a panel of three panelists (5 panelists for isovaleric acid), and while the intensity of odor in the case of adding dropwise the malodor alone was rated as 5, the intensity of the malodor in the case of incorporating a test substance was evaluated on the basis of a system of 20 grades from 0 point to 10 points (0.5 points per grade).
Regarding the test substance, florhydral (Givaudan SA), bourgeonal (Givaudan SA), hydroxycitronellal (Givaudan SA, International Flavors & Fragrances, Inc., and the like), 4-isopropylcyclohexanecarbaldehyde (synthesized according to a method described in JP-A-2-188549), 4-(2-methoxyphenyl)-2-methyl-2-butanol (JP-A-9-111281), florosa (Givaudan SA), isocyclocitral (Givaudan SA, International Flavors & Fragrances, Inc., and the like), tripral (International Flavors & Fragrances, Inc.), and Pollenal II (Kao Corp.), which had been diluted 100 times with propylene glycol, were used for hexanoic acid; florhydral that had been diluted 10 times with propylene glycol was used for nonanoic acid; and florhydral that had been diluted 1000 times with propylene glycol was used for isovaleric acid.

[2] = 1 mM hexanoic acid, test substance 3, 10, 30, 100, 300 μM (FIG. 4)

Inhibition of OR51E1 response to hexanoic acid (in words) (OR51E1; [2])	Inhibition of OR51L1 response to hexanoic acid (in words) (OR51L1; [2])	Compound	Inhibition ratio of OR51E1 response (OR51E1)	Inhibition ratio of OR51L1 response (OR51L1)	Intensity of odor [1]	Inhibition of hexanoic acid odor (in words) [1]
		2,4,6-trimethyl-3-cyclohexene-1-carboxyaldehyde, 3,5,6-trimethyl-3-cyclohexene-1-carboxyaldehyde [Isocyclocitral]	1 (Inhibition ratio: 50% or higher)	1 (Inhibition ratio: 50% or higher)	0.67	inhibit the hexanoic acid odor
in a concentration-dependent manner	in a concentration-dependent manner	CC(C)c1cccc(C(C)CC=O)c1 (stereo not shown) [Florhydral, 3-(3-isopropylphenyl)-butyraldehyde]	1 (Inhibition ratio: 50% or higher)	1 (Inhibition ratio: 50% or higher)	1.25	markedly inhibited
